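Briefly, cells in 96-well plates were exposed to five compound concentrations for 48 h, and endpoints were estimated by linear interpolation. Here, GI50 denotes the concentration required for 50% inhibition of growth. The concentration for full growth arrest is given as TGI.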
Key:
Experiment in all cases: NCI tumour cell line growth inhibition, 48 h
786-0 renal = system: 786-0 renal
A549 NSCLC = system: A549 NSCLC
DU-145 prostate = system: DU-145 prostate
HT29 colon = system: HT29 colon
KM12 colon = system: KM12 colon
MCF7 breast = system: MCF7 breast
OVCAR-8 ovarian = system: OVCAR-8 ovarian
RPMI-8226 leukemia = system: RPMI-8226 leukemia
SNB-75 CNS = system: SNB-75 CNS
HCC-2998 colon = system: HCC-2998 colon

Compound	TGI (786-0 renal)	TGI (A549 NSCLC)	TGI (DU-145 prostate)	TGI (HT29 colon)	TGI (KM12 colon)	TGI (MCF7 breast)	TGI (OVCAR-8 ovarian)	TGI (RPMI-8226 leukemia)	TGI (SNB-75 CNS)	TGI (HCC-2998 colon)	GI50 (786-0 renal)	GI50 (A549 NSCLC)	GI50 (HCC-2998 colon)	GI50 (KM12 colon)	GI50 (OVCAR-8 ovarian)	GI50 (RPMI-8226 leukemia)	GI50 (SNB-75 CNS)	GI50 (DU-145 prostate)	GI50 (HT29 colon)	GI50 (MCF7 breast)
CC(C)(C)c1ccc(O)c(CN(Cc2cc(C(C)(C)C)ccc2O)c2ccccc2)c1	30.7 µM	35.9 µM	38.3 µM	35.3 µM	66.7 µM	38.9 µM	37.5 µM	47.7 µM	52.4 µM	–	–	–	–	–	–	–	–	–	–	–
CCCCOC(=O)NC(=O)c1cn(C2CCCCC2)c(=O)[nH]c1=O	40.1 µM	> 100 µM	–	> 100 µM	> 100 µM	–	> 100 µM	> 100 µM	–	> 100 µM	–	–	–	–	–	–	–	–	–	–
N.N.O=C([O-])P(=O)([O-])[O-].[Na+].[Pt+4]	> 100 µM	> 100 µM	–	–	> 100 µM	–	> 100 µM	> 100 µM	> 100 µM	> 100 µM	> 100 µM	> 100 µM	> 100 µM	> 100 µM	> 100 µM	> 100 µM	> 100 µM	–	–	–
COc1ncc(-c2ccc3ncnc(Nc4cccc(Cl)c4)c3c2)cc1NS(=O)(=O)CCN1CCOCC1	> 100 µM	–	> 100 µM	–	> 100 µM	–	> 100 µM	> 100 µM	0.739 µM	–	0.298 µM	–	–	1.81 µM	0.7 µM	1.23 µM	< 0.01 µM	0.297 µM	–	–
CCO/N=C(/N)c1ncn(Cc2ccccc2)c1NCC(OCC)OCC	> 100 µM	> 100 µM	–	> 100 µM	> 100 µM	–	> 100 µM	> 100 µM	> 100 µM	> 100 µM	–	–	–	–	–	–	–	–	–	–
Cc1[nH]c2ccccc2c1C1Cc2ccccc2N1C(=O)/C(Cl)=C/c1ccccc1 (stereo unspecified)	> 100 µM	> 100 µM	–	> 100 µM	> 100 µM	–	> 100 µM	> 100 µM	99.6 µM	> 100 µM	–	–	–	–	–	–	–	–	–	–
CCOc1ccc2c(c1)[n+]([O-])c(-c1nc3ccccc3s1)c(N)[n+]2[O-]	> 100 µM	> 100 µM	–	> 100 µM	> 100 µM	–	> 100 µM	> 100 µM	> 100 µM	> 100 µM	–	–	–	–	–	–	–	–	–	–
CS(=O)(=O)c1cc(=O)c2ccccc2s1	13 µM	35.7 µM	33.3 µM	16.2 µM	32.3 µM	8.18 µM	6.22 µM	–	31 µM	30.5 µM	–	–	–	–	–	–	–	–	–	–
N#C/C(=C\c1cc2ccccc2c2ccccc12)c1ccccc1	18 µM	> 100 µM	–	18.1 µM	> 52.3 µM	–	> 100 µM	> 51.1 µM	10.9 µM	59.2 µM	–	–	–	–	–	–	–	–	–	–
OC/C=C(\I)CCCOCOCc1ccccc1	> 100 µM	> 100 µM	–	> 100 µM	> 100 µM	–	> 100 µM	47.5 µM	> 100 µM	> 100 µM	–	–	–	–	–	–	–	–	–	–
COc1ccc(/C(Cl)=C(\C=O)c2ccc([N+](=O)[O-])cc2)cc1	31.6 µM	66.6 µM	–	29.9 µM	11.4 µM	–	38.3 µM	8 µM	30.9 µM	62.6 µM	–	–	–	–	–	–	–	–	–	–
CC(C)c1ccc(C(c2ccc(OCC(=O)O)cc2)c2ccc(C(C)C)cc(=O)c2O)c(O)c(=O)c1	22 µM	21.3 µM	–	> 100 µM	–	–	58.3 µM	47 µM	16.2 µM	20.3 µM	–	–	–	–	–	–	–	–	–	–
COc1ccc2nc3cc(Cl)ccc3c(NCCN)c2c1	3.05 µM	–	2.92 µM	–	3.46 µM	–	–	5.07 µM	–	–	1.63 µM	–	–	1.67 µM	–	2.04 µM	–	1.53 µM	–	–
COC(=O)C(=O)C(C(=O)C=C(C)C)C(=O)C(=O)Nc1ccc(C)cc1C (stereo unspecified)	> 100 µM	> 100 µM	–	> 100 µM	> 100 µM	–	> 100 µM	> 100 µM	> 100 µM	> 100 µM	–	–	–	–	–	–	–	–	–	–
CC(C)N1CN(C(C(=O)N[C@@H]2C(=O)N3C2SC(C)(C)C3C(=O)O)c2ccccc2)CSC1=S (stereo partly specified)	> 100 µM	–	–	> 100 µM	> 100 µM	–	> 100 µM	> 100 µM	> 100 µM	–	–	–	–	–	–	–	–	–	–	–
CCc1ccc(Nc2ccc([N+](=O)[O-])cc2[N+](=O)[O-])cc1	> 100 µM	> 100 µM	–	> 100 µM	> 100 µM	–	> 100 µM	> 100 µM	> 100 µM	> 100 µM	–	–	–	–	–	–	–	–	–	–
COc1ccc(/C=C\c2cc(OC)c(OC)c(OC)c2)cc1OC(=O)NCCN(C)C	> 34.8 µM	> 41.3 µM	0.043 µM	19.9 µM	–	> 100 µM	0.638 µM	–	32.8 µM	0.487 µM	–	< 0.028 µM	< 0.0469 µM	< 0.0001 µM	–	–	–	–	0.348 µM	–
Cn1c2ccccc2c2c3[nH]c(=O)[nH]c(=O)c3c3c4ccccc4n(C)c3c21	4.34 µM	> 100 µM	> 100 µM	–	> 100 µM	> 100 µM	14.1 µM	–	3.27 µM	> 100 µM	1.88 µM	2.86 µM	8.25 µM	2.51 µM	2.94 µM	–	1.49 µM	1.51 µM	–	1.9 µM
CC[C@H](C)[C@H]1O[C@]2(C=C[C@@H]1C)C[C@@H]1C[C@@H](C/C=C(\C)[C@@H](O[C@H]3C[C@H](OC)[C@@H](O[C@H]4C[C@H](OC)[C@@H](NC)[C@H](C)O4)[C@H](C)O3)[C@@H](C)/C=C/C=C3\CO[C@@H]4[C@H](O)C(C)=C[C@@H](C(=O)O1)[C@]34O)O2	2.94 µM	6.38 µM	–	4.14 µM	11.4 µM	4.34 µM	14.5 µM	13.6 µM	8.44 µM	3.36 µM	1.26 µM	2.01 µM	1.89 µM	3.1 µM	3.84 µM	3.32 µM	1.93 µM	–	1.88 µM	1.85 µM
Fc1ccc(C2SCc3nc4ccccc4n32)cc1Cl (stereo unspecified)	> 100 µM	> 100 µM	–	> 100 µM	39.8 µM	–	48.1 µM	–	–	37.2 µM	–	–	–	–	–	–	–	–	–	–
CC1=N/C(=C\c2cccc([N+](=O)[O-])c2)C(=O)O1	> 100 µM	> 100 µM	–	> 100 µM	> 100 µM	–	> 100 µM	> 100 µM	91 µM	> 100 µM	–	–	–	–	–	–	–	–	–	–
